# Assay results published in DBAASP.
# “And” between values parts separate entries of the source, which are not always exact repeats. Equal values may be shown once.
# Experiments:
# Assay in all cases: ≥ marks a high value that may be exact or a test limit, other limits are often not marked, values filed in µg/mL are converted to µM
# [1] = system: Staphylococcus aureus FDA 209P
# [2] = system: Bacillus subtilis ATCC 6633
# [3] = system: Pseudomonas aeruginosa ATCC 27853
# [4] = system: Enterococcus faecalis NCTC 12697
# [5] = system: Escherichia coli NCTC 10418
# [6] = system: Staphylococcus aureus NCTC 10788
# [7] = system: Candida albicans NCYC 1467
# [8] = system: Klebsiella pneumoniae ATCC 43816
# [9] = system: Staphylococcus aureus NCTC 12493
# [10] = system: Staphylococcus aureus ATCC 8530
# Escherichia coli W160-37 = system: Escherichia coli W160-37
# [11] = system: Micrococcus luteus ATCC 10240
# [12] = system: Klebsiella pneumoniae ATCC 10031
# [13] = system: Shigella dysenteriae ATCC 9752
# [14] = system: Escherichia coli ATCC 25922
# [15] = system: Staphylococcus epidermidis ATCC 12228
# [16] = system: Staphylococcus aureus ATCC 6538P
# [17] = system: Salmonella enterica subsp. enterica serovar Typhimurium ATCC 14028
# Escherichia coli BW25113 = system: Escherichia coli BW25113
# [18] = system: Salmonella enterica subsp. enterica serovar Pullorum ATCC 7913
# [19] = system: Staphylococcus aureus ATCC 43300
# [20] = system: Candida krusei CGMCC 2.1857
# [21] = system: Candida tropicalis CGMCC 2.1975
# [22] = system: Staphylococcus aureus ATCC 25923
# Candida albicans = system: Candida albicans
# Escherichia coli 1005 = system: Escherichia coli 1005
# [23] = system: Candida parapsilosis CGMCC 2.3989
# [24] = system: Staphylococcus aureus ATCC 29213
# [25] = system: Pseudomonas aeruginosa ATCC BAA-427
smiles,measurement,setting,value
CC[C@H](C)[C@H](NC(=O)[C@H](C)NC(=O)CNC(=O)[C@H](Cc1ccccc1)NC(=O)[C@H](CC(C)C)NC(=O)[C@H](CC(C)C)NC(=O)[C@@H]1CCCN1C(=O)[C@H](CC(C)C)NC(=O)[C@@H](N)Cc1ccccc1)C(=O)N[C@@H](CO)C(=O)N[C@@H](Cc1cnc[nH]1)C(=O)N[C@@H](CC(C)C)C(=O)N[C@@H](CC(C)C)C(N)=O [FLPLLFGAISHLL],MIC,[1],30.7 µM
same,MIC,[2],≥ 44.4 µM
CC[C@H](C)[C@H](NC(=O)[C@H](C)NC(=O)[C@H](C)NC(=O)[C@@H]1CCCN1C(=O)[C@@H](NC(=O)[C@H](CC(C)C)NC(=O)[C@H](CO)NC(=O)[C@H](CC(C)C)NC(=O)[C@@H](N)Cc1ccccc1)[C@@H](C)CC)C(=O)N[C@@H](CO)C(=O)N[C@@H](C)C(=O)N[C@H](C(=O)N[C@@H](CO)C(=O)N[C@@H](C)C(=O)N[C@@H](CC(C)C)C(=O)N[C@@H](C)C(=O)N[C@@H](CC(N)=O)C(=O)N[C@@H](Cc1cnc[nH]1)C(=O)N[C@@H](Cc1ccccc1)C(N)=O)C(C)C [FLSLIPAAISAVSALANHF],MIC,[3],> 512 µM
same,MIC,[4],≥ 264 µM
same,MIC,[5],≥ 264 µM
same,MIC,[6],≥ 33 µM
same,MIC,[7],≥ 132 µM
same,MIC,[8],≥ 512 µM
same,MIC,[9],≥ 33 µM
CC[C@H](C)[C@@H]1NC(=O)[C@H](C)NC(=O)[C@@H](NC(=O)[C@H](Cc2ccccc2)NC(=O)[C@@H](NC(=O)[C@H](CCCCN)NC(=O)[C@@H]2CCCN2C(=O)[C@H](CC(C)C)NC(=O)[C@H](Cc2ccccc2)NC(=O)[C@H](CCCCN)NC(=O)[C@@H](N)CCCCN)[C@@H](C)CC)CSSC[C@@H](C(=O)O)NC(=O)[C@H](CCCCN)NC(=O)[C@H](CCCCN)NC(=O)[C@H]([C@@H](C)O)NC1=O [KKFLPKIFCAITKKC],MIC,[3],256 µM
same,MIC,[4],≥ 512 µM
same,MIC,[5],16 µM
same,MIC,[6],8 µM
same,MIC,[7],≥ 32 µM
same,MIC,[8],≥ 128 µM
same,MIC,[9],16 µM
CC[C@H](C)[C@H](NC(=O)[C@H](CC(C)C)NC(=O)[C@H](CCC(N)=O)NC(=O)[C@H](CCCCN)NC(C)=O)C(=O)N[C@@H](CCCN=C(N)N)C(=O)N[C@@H](Cc1ccccc1)C(=O)N[C@@H](CC(C)C)C(=O)N[C@@H](CCCCN)C(=O)N[C@@H](CCCN=C(N)N)C(=O)N[C@@H](CC(C)C)C(=O)N[C@@H](CC(=O)O)C(=O)N[C@@H](CCCN=C(N)N)C(=O)N[C@@H](CC(N)=O)C(=O)N[C@@H](CC(C)C)C(=O)N[C@@H](Cc1c[nH]c2ccccc12)C(=O)NCC(=O)N[C@@H](CC(C)C)C(=O)N[C@@H](C)C(N)=O [KQLIRFLKRLDRNLWGLA],MIC,[10],11 µM
same,MIC,Escherichia coli W160-37,4.5 µM
CC(C)C[C@H](NC(=O)[C@H](CC(C)C)NC(=O)[C@H](CCCCN)NC(=O)[C@H](CC(C)C)NC(=O)[C@H](CC(C)C)NC(=O)[C@H](Cc1c[nH]c2ccccc12)NC(=O)[C@H](CCCCN)NC(=O)[C@H](CC(C)C)NC(=O)[C@H](CC(C)C)NC(=O)[C@H](CCCCN)NC(=O)[C@@H](N)CC(C)C)C(N)=O [LKLLKWLLKLL],MIC,[11],2.25 µM
same,MIC,[3],> 145 µM
same,MIC,[12],≥ 36.2 µM
same,MIC,[13],9.05 µM
same,MIC,[14],36.2 µM
same,MIC,[15],2.25 µM
same,MIC,[16],2.25 µM
same,MIC,[2],1.16 µM
same,MIC,[17],> 145 µM
CC[C@H](C)[C@H](NC(=O)[C@@H]1CCCN1C(=O)[C@H](Cc1ccccc1)NC(=O)[C@H](CCCN=C(N)N)NC(=O)[C@H](Cc1ccccc1)NC(=O)[C@@H](N)CCCN=C(N)N)C(=O)N[C@@H](CCCN=C(N)N)C(=O)N[C@@H](CCCN=C(N)N)C(=O)N1CCC[C@H]1C(=O)N1CCC[C@H]1C(=O)N[C@H](C(=O)N[C@@H](CCCN=C(N)N)C(=O)N1CCC[C@H]1C(=O)N1CCC[C@H]1C(=O)N[C@@H](Cc1ccccc1)C(=O)N[C@@H](Cc1ccc(O)cc1)C(=O)N1CCC[C@H]1C(=O)O)[C@@H](C)CC [RFRFPIRRPPIRPPFYP],MIC,Escherichia coli BW25113,8 µM
CC[C@H](C)[C@H](NC(=O)[C@H](CCCN=C(N)N)NC(=O)[C@@H](NC(=O)[C@@H](NC(=O)[C@@H](NC(=O)[C@H](CCCN=C(N)N)NC(=O)[C@@H](NC(=O)[C@@H](N)CCCN=C(N)N)[C@@H](C)CC)[C@@H](C)CC)[C@@H](C)CC)[C@@H](C)CC)C(=O)N[C@@H](CCCN=C(N)N)C(N)=O [RIRIIIRIR],MIC,[18],4 µM
same,MIC,[19],4 µM
same,MIC,[20],2 µM
same,MIC,[21],2 µM
same,MIC,[15],4 µM
same,MIC,[22],4 µM
same,MIC,Candida albicans,2 µM
same,MIC,Escherichia coli 1005,4 µM
same,MIC,[17],4 µM
same,MIC,[23],8 µM
same,MIC,[24],4 µM
CC(C)C[C@H](NC(=O)[C@H](CCCN=C(N)N)NC(=O)[C@H](CC(C)C)NC(=O)[C@H](CC(C)C)NC(=O)[C@H](CC(C)C)NC(=O)[C@H](CCCN=C(N)N)NC(=O)[C@H](CC(C)C)NC(=O)[C@@H](N)CCCN=C(N)N)C(=O)N[C@@H](CCCN=C(N)N)C(N)=O [RLRLLLRLR],MIC,[18],4 µM
same,MIC,[19],4 µM
same,MIC,[20],8 µM
same,MIC,[14],4 µM and 8 µM
same,MIC,[21],2 µM
same,MIC,[15],4 µM
same,MIC,[22],8 µM
same,MIC,Candida albicans,8 µM
same,MIC,Escherichia coli 1005,4 µM
same,MIC,[17],4 µM
same,MIC,[23],≥ 64 µM
same,MIC,[24],8 µM
NC(=O)[C@H](CCCN=C(N)N)NC(=O)[C@H](CCCN=C(N)N)NC(=O)[C@H](Cc1ccccc1)NC(=O)[C@H](CCCN=C(N)N)NC(=O)[C@H](Cc1ccccc1)NC(=O)[C@H](Cc1ccccc1)NC(=O)[C@H](Cc1ccccc1)NC(=O)[C@H](CCCN=C(N)N)NC(=O)[C@H](Cc1ccccc1)NC(=O)[C@H](CCCN=C(N)N)NC(=O)[C@@H](N)CCCN=C(N)N [RRFRFFFRFRR],MIC,[18],2 µM
same,MIC,[19],4 µM
same,MIC,[20],2 µM
same,MIC,[14],4 µM and > 2 µM
same,MIC,[21],1 µM
same,MIC,[15],4 µM
same,MIC,[22],8 µM
same,MIC,Candida albicans,2.83 µM
same,MIC,Escherichia coli 1005,4 µM
same,MIC,[17],4 µM
same,MIC,[23],16 µM
same,MIC,[24],4 µM
CC(C)C[C@H](NC(=O)[C@H](CC(=O)O)NC(=O)[C@H](CC(C)C)NC(=O)[C@H](CCCCN)NC(=O)[C@H](CC(C)C)NC(=O)[C@H](CC(=O)O)NC(=O)[C@H](CC(C)C)NC(=O)[C@H](CCCCN)NC(=O)[C@H](CC(C)C)NC(=O)[C@H](CC(=O)O)NC(=O)[C@H](CC(C)C)NC(=O)[C@H](CCCCN)NC(=O)[C@H](CCCN=C(N)N)NC(=O)[C@H](CCCN=C(N)N)NC(=O)[C@@H](N)CCCN=C(N)N)C(=O)O [RRRKLDLKLDLKLDL],MIC,[14],6 µM
same,MIC,[22],5 µM
same,MIC,[25],6 µM
same,MIC,[2],5 µM
CC[C@H](C)[C@H](NC(=O)[C@@H]1CCCN1C(=O)[C@H](CCCN=C(N)N)NC(=O)[C@H](CCCN=C(N)N)NC(=O)[C@H](Cc1c[nH]c2ccccc12)NC(=O)[C@@H](N)CCCN=C(N)N)C(=O)N[C@@H](CCCN=C(N)N)C(=O)N[C@@H](CCCN=C(N)N)C(=O)N1CCC[C@H]1C(=O)N1CCC[C@H]1C(=O)N[C@H](C(=O)N[C@@H](CCCN=C(N)N)C(=O)N1CCC[C@H]1C(=O)N1CCC[C@H]1C(=O)N[C@@H](Cc1ccccc1)C(=O)N[C@@H](Cc1ccc(O)cc1)C(=O)N[C@@H](CCCN=C(N)N)C(=O)O)[C@@H](C)CC [RWRRPIRRPPIRPPFYR],MIC,Escherichia coli BW25113,8 µM
